# Reference: ChEMBL document CHEMBL1154268, “Bioactive guanidine alkaloids from two Caribbean marine sponges” (J Nat Prod, 2009)
# Legend:
# [1] = tested on: HeLa; test: Cytotoxicity against human HeLa cells by sulforhodamine B assay; type: functional; details: read-out: TC50 (the source's name)
# [2] = tested on: Plasmodium falciparum; test: Antimalarial activity against chloroquine-resistant Plasmodium falciparum FcB1/Columbia infected in human erythrocytes assessed as inhibition of [G-3H]hypoxanthine incorporation after 24 hrs by scintillation counting; type: functional, organism-based
# [3] = Selective index, ratio of TC50 for human HeLa cells to IC50 for Plasmodium falciparum FcB1/Columbia; type: functional
# [4] = tested on: MDA-MB-231; test: Growth inhibition of human MDA-MB-231 cells by sulforhodamine B assay; type: functional; details: for CC50: read-out: LC50 (the source's name)
# [5] = tested on: A549; test: Growth inhibition of human A549 cells by sulforhodamine B assay; type: functional; details: for CC50: read-out: LC50 (the source's name)
# [6] = tested on: HT-29; test: Growth inhibition of human HT-29 cells by sulforhodamine B assay; type: functional
# [7] = tested on: Vero; test: Cytotoxicity against african green monkey Vero cells; type: cell-based; details: chlorocebus sabaeus
SMILES,CC50 [1],IC50 [2],Selectivity Index [3],GI50 [4],TGI [4],CC50 [4],GI50 [5],TGI [5],CC50 [5],GI50 [6],LC50 (concentration killing 50% of cells) [6],TGI [6],Activity [7]
CCCCCCCCC[C@@H]1C[C@@H]2CC[C@H]3[C@@H](C(=O)OCCCCCCCCC[C@H]4NC(=N)N5CCCC5=C4C(=O)OCCCCNC(=N)N)[C@@H](C)N=C(N1)N23 [BATZELLADINE A],2.9 µM,0.3 µM,9.7,,,,,,,,,,
CCCCCCCCC[C@@H]1C[C@@H]2CC[C@H]3[C@@H](C(=O)OC(C)CCCCCCC[C@@H]4C[C@@H]5CC[C@@H]6C[C@H](C)NC(=N4)N65)[C@@H](C)N=C(N1)N23 (some centres undefined) [BATZELLADINE L],< 0.1 µM,0.3 µM,<1,,,,,,,,,,
CCCCCCC[C@@H]1C[C@@H]2CCc3c(C(=O)O)c(C)nc([n+]32)N1 [CLATHRIADIC ACID],,2.3 µM,,13.5 µM,> 30 µM,> 30 µM,> 30 µM,> 30 µM,> 30 µM,> 30 µM,> 30 µM,> 30 µM,
CCCCCCCCC[C@@H]1C[C@@H]2CCc3c(C(=O)OCCCCNC(=N)N)c(CCCCC)nc([n+]32)N1 [DIHOMODEHYDROBATZELLADINE C],,4.5 µM,,6.1 µM,9.8 µM,15.6 µM,4.7 µM,8.2 µM,13.1 µM,3.1 µM,8.2 µM,5.1 µM,
CCCCCCC[C@@H]1C[C@@H]2CC[C@H]3[C@@H](C(=O)OCCCCCCCCC[C@H]4NC(=N)N5CCCC5=C4C(=O)OCCCCNC(=N)N)[C@@H](C)N=C(N1)N23 [DINORBATZELLADINE A],,0.9 µM,,3 µM,3.8 µM,4.6 µM,4.9 µM,5.1 µM,5.4 µM,1.9 µM,7.6 µM,4.2 µM,
CCCCCCC[C@@H]1C[C@@H]2CCc3c(C(=O)OCCCCCCC[C@H]4NC(=N)N5CCCC5=C4C(=O)OCCCCNC(=N)N)c(C)nc([n+]32)N1 [DINORDEHYDROBATZELLADINE B],,0.8 µM,,,,,7.9 µM,> 14 µM,> 14 µM,6.2 µM,> 14 µM,> 14 µM,
CCCCCCCC[C@@H]1C[C@@H]2CC[C@H]3[C@@H](C(=O)OCCCCCCCCC[C@H]4NC(=N)N5CCCC5=C4C(=O)OCCCCNC(=N)N)[C@@H](C)N=C(N1)N23 [NORBATZELLADINE A],4.7 µM,0.2 µM,23.5,3.8 µM,6.4 µM,11.4 µM,2.1 µM,4.6 µM,8.6 µM,1.6 µM,5.7 µM,3.2 µM,
CCCCCCCC[C@@H]1C[C@@H]2CC[C@H]3[C@@H](C(=O)OC(C)CCCCCCC[C@@H]4C[C@@H]5CC[C@@H]6C[C@H](C)NC(=N4)N65)[C@@H](C)N=C(N1)N23 (some centres undefined) [NORBATZELLADINE L],,0.4 µM,,0.7 µM,1.9 µM,4.8 µM,1.1 µM,2.1 µM,4.2 µM,1.2 µM,4 µM,2.2 µM,
CC[C@H]1CCCC[C@@]2(C[C@@H]3CC[C@@H]4[C@H](C(=O)OCCCCCCCCCCCCCCCC(=O)N(CCCN)CCCCN)[C@]5(CCC[C@@H](C)O5)NC(=[N+]34)N2)O1.[Cl-] [PTILOMYCALIN A],0.1 µM,0.1 µM,1.4,,,,,,,,,,Non-toxic
